The text below walks through data of PubChem BioAssay (NCI).

Holding throughout (assay): growth of human tumour cells (NCI), 48 h
Experiment [1] deals with NCI/ADR-RES ovarian.
Experiment [2] relates to M14 melanoma.
For experiment [3], the system named is CAKI-1 renal.
Experiment [4] relates to MOLT-4 leukemia.
The test system of experiment [5] is MALME-3M melanoma.
In experiment [6] the test system is NCI-H23 lung.
Experiment [7] relates to LOX IMVI melanoma.
Experiment [8] deals with SNB-19 CNS.
In experiment [9] the test system is OVCAR-3 ovarian.
Experiment [10] has as its system A498 renal.

Structures are written as SMILES.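 Grown in 96-well plates, cells were treated for 48 hours with each compound at five concentrations. Insufficient inhibition: endpoint recorded as highest concentration tested. The concentration for 50% growth inhibition is given as GI50. TGI is the concentration that stops growth completely.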

For `COc1cccc(-c2nc3sccn3c2-c2ccnc(NCCNS(=O)(=O)c3ccccc3)c2)c1`, the GI50 in [1] is 2.66 µM; in [2] it was 2.84 µM; in experiment [3], 1.42 µM; in experiment [4], 2.03 µM; in experiment [5], 2.79 µM; in experiment [6], 2.64 µM. In addition, the figures for the GI50 in experiment [7], in experiment [8] and in [9] were 3.01 µM, 5.92 µM and 3.15 µM, respectively. Further, the TGI in experiment [1] is 23.9 µM; in [2], over 100 µM; in experiment [3] it was over 100 µM; in experiment [4], over 100 µM; in experiment [5] it was over 100 µM; in [6], 13.3 µM. For the same molecule, the TGI in experiment [7] was 84.1 µM; in experiment [8] it was over 100 µM; in experiment [9] it was over 100 µM.

`Cc1cc(N2CCCC2)nc(NC2CCCC(Nc3ccnc4cc(Cl)ccc34)C2)n1` (stereo not given): the GI50 is 1.78 µM in experiment [1]; 1.14 µM in [2]; 0.478 µM in experiment [4]; 1.59 µM in experiment [6]; 0.681 µM in [7]; 1.46 µM in [8]. Moreover, the GI50 in experiment [10] is 1.91 µM; in experiment [9], 1.67 µM. For the same molecule, the TGI in experiment [1] stood at 5.69 µM; in [2], 2.51 µM; in experiment [4], 3.13 µM; in experiment [6], 4.14 µM; in [7] it was 2.1 µM; in [8], 3.44 µM. Also, the TGI in experiment [10] turned out to be 3.48 µM; in experiment [9] it was 4.21 µM.

Turning to `COc1ccc(-c2ccc(/C=N/n3c(COc4ccc(Cl)cc4Cl)nn(CN4CCN(C)CC4)c3=S)o2)c([N+](=O)[O-])c1`, the GI50 in experiment [1] is 18.1 µM; in experiment [2], 19.8 µM; in experiment [3] it was 16.8 µM; in experiment [6] it was 13.3 µM; in experiment [7], 11.4 µM; in experiment [8], 35.2 µM. The figures for the GI50 in experiment [10] and in [9] were 2.28 µM and 7.51 µM, respectively. The TGI in experiment [1] was 45.5 µM; in experiment [2], 53.9 µM; in experiment [3], 37.3 µM; in experiment [6], 30.6 µM; in experiment [7] it was 25.2 µM; in experiment [8], over 100 µM. Further, the TGI was found to be 5.1 µM in experiment [10] and 25 µM in experiment [9].

Take `COC(=O)C12C3C4C5C3(C#N)C1C5(C(=O)OC)C42C(=O)N(C(C)C)C(C)C` (stereo not given): the TGI in [2], in experiment [3], in experiment [4], in [5], in experiment [6] and in [7] was over 100 µM each time. Also, the TGI in experiment [8], in [10] and in [9] was over 100 µM each time.

Regarding `NC1CCCCC1N.O=S(=O)([O-])CCCN1CCOCC1.O=S(=O)([O-])CCCN1CCOCC1.[Pt+4]`, the GI50 in experiment [2] was 14.4 µM; in experiment [3], 5.01 µM; in [4], 2.33 µM; in [5], 5.23 µM; in [6], 18.2 µM; in experiment [7] it was 16.2 µM. In addition, the GI50 is 25.7 µM in experiment [8], 49 µM in experiment [10] and 19.3 µM in experiment [9]. The TGI was over 100 µM in [2]; over 85.8 µM in experiment [3]; 14.1 µM in experiment [4]; 22.5 µM in experiment [5]; over 92.2 µM in experiment [6]; over 59.2 µM in experiment [7]. For the same molecule, the TGI in [8], in experiment [10] and in experiment [9] was over 100 µM each time.

Turning to `C[C@]12CC[C@H](OCCC#N)CC1=CC[C@@H]1C2CC[C@]2(C)/C(=N/OCCC#N)CCC12` (stereo not given in full), the TGI in experiment [2], in [3], in experiment [4], in experiment [5], in [6] and in experiment [7] was over 100 µM throughout. Besides, the TGI in experiment [8] is 97.9 µM; in experiment [10], over 100 µM; in experiment [9], over 100 µM.

Consider `CCOC(=O)C1=C(Nc2ccc(Cl)cc2Cl)OC/C1=N\NS(=O)(=O)c1ccc(C)cc1`, for which the TGI in experiment [2], in experiment [3], in experiment [4], in experiment [5], in [6] and in experiment [7] was over 100 µM throughout. The TGI in experiment [8], in experiment [10] and in experiment [9] was over 100 µM throughout.

Turning to `O=C(N/N=C/c1ccccc1Cl)c1ccccc1Nc1ccnc(C(F)(F)F)c1`, the GI50 was 2.16 µM in experiment [1]; 1.63 µM in experiment [2]; 0.389 µM in experiment [3]; 1.55 µM in experiment [5]; 1.82 µM in [6]; 1.33 µM in experiment [7]. For the same molecule, the values for the GI50 in experiment [8], in experiment [10] and in experiment [9] were 2.4 µM, 1.76 µM and 0.832 µM, respectively. In addition, the TGI in experiment [1] came to 9.32 µM; in [2], 7.19 µM; in [3], 2.72 µM; in [5], 4.94 µM; in experiment [6] it was 8.18 µM; in [7] it was 5.21 µM. For the same molecule, the TGI in experiment [8] was over 61.2 µM; in [10] it was 5.99 µM; in experiment [9], 3.68 µM.

`Cc1cccc(C)c1NC(=O)CCc1nnc2s/c(=C\c3ccc(Cl)cc3)c(=O)n12`: the TGI in [2], in [3], in experiment [4], in experiment [5], in experiment [6] and in [7] was over 100 µM each time. Further, the TGI in experiment [8], in experiment [10] and in [9] was over 100 µM each time.

As to `O=C([O][Hg][CH2]C1COCC([CH2][Hg][O]C(=O)c2ccccc2)O1)c1ccccc1` (stereo not given), the GI50 was 21.1 µM in experiment [1]; 6.01 µM in [2]; 1.61 µM in experiment [3]; 2.96 µM in experiment [4]; 16.1 µM in experiment [6]; 1.73 µM in experiment [7]. In addition, the values for the GI50 in [8], in [10] and in experiment [9] were 19.2 µM, 17.1 µM and 1.58 µM, respectively. Moreover, the TGI worked out at 61.6 µM in experiment [1]; 19.9 µM in experiment [2]; 3.21 µM in experiment [3]; 12.5 µM in experiment [4]; 36.8 µM in experiment [6]; 4.2 µM in experiment [7]. The values for the TGI in experiment [8], in experiment [10] and in experiment [9] were 40 µM, 31.2 µM and 2.93 µM, respectively.
